From patent US9113629B2, “4-amino-6-(4-substituted-phenyl)-picolinates and 6-amino-2-(4-substituted-phenyl)-pyrimidine-4-carboxylates and their use as herbicides” (DOW AGROSCIENCES LLC, priority 2013, dated 2015)
Where two headings read alike, the source gives them in different places.

Experiments:
[1] = test system: Key Broadleaf Weed and Crop Species; assay: Post-emergent Test II herbicidal activity (Table 5); assay type: in vivo; settings: post-emergence, 336 h, post-emergent, 14 days after application; for pest or weed control at 70 g/ha: 70 g ai/ha; for pest or weed control at 140 g/ha: 140 g ai/ha
In short: (§1)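 Spray rates: a highest rate plus ½×, ¼×, ⅛×, 1/16×, all delivered at 187 L/ha to plants at the first–second true leaf stage. Readout is a visual percent injury score at 14 d, where 100 means complete kill.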

[2] = test system: Key Grass and Sedge Weeds as well as Grass Crops; assay: Post-emergent Test II herbicidal activity (Table 6); assay type: in vivo; settings: post-emergence, 336 h; for pest or weed control at 70 g/ha: application rate 70 g ai/ha; for pest or weed control at 140 g/ha: application rate 140 g ai/ha
In short: as §1

[3] = ABUTH: velvetleaf (Abutilon theophrasti), read-out: Visual Growth Reduction (%) 14 Days After Application ABUTH
[4] = AMARE: redroot pigweed (Amaranthus retroflexus), read-out: Visual Growth Reduction (%) 14 Days After Application AMARE
[5] = BRSNN: oilseed-rape, canola (Brassica napus), read-out: Visual Growth Reduction (%) 14 Days After Application BRSNN
[6] = CHEAL: lambsquarters (Chenopodium album), read-out: Visual Growth Reduction (%) 14 Days After Application CHEAL
[7] = EPHHL: wild poinsettia (Euphorbia heterophylla), read-out: Visual Growth Reduction (%) 14 Days After Application EPHHL
[8] = HELAN: sunflower (Helianthus annuus), read-out: Visual Growth Reduction (%) 14 Days After Application HELAN
[9] = VIOTR: wild pansy (Viola tricolor), read-out: Visual Growth Reduction (%) 14 Days After Application VIOTR
[10] = CYPES: yellow nutsedge (Cyperus esculentus), read-out: Visual Growth Reduction (%) 14 Days After Application, CYPES
[11] = DIGSA: crabgrass (Digitaria sanguinalis), read-out: Visual Growth Reduction (%) 14 Days After Application, DIGSA
[12] = ECHCG: barnyardgrass (Echinochloa crus-galli), read-out: Visual Growth Reduction (%) 14 Days After Application, ECHCG
[13] = ORYSA: rice (Oryza sativa), read-out: Visual Growth Reduction (%) 14 Days After Application, ORYSA
[14] = SETFA: giant foxtail (Setaria faberi), read-out: Visual Growth Reduction (%) 14 Days After Application, SETFA
[15] = SORVU: grain sorghum (Sorghum vulgare), read-out: Visual Growth Reduction (%) 14 Days After Application, SORVU
[16] = TRZSS (wheat, Triticum aestivum), read-out: Visual Growth Reduction (%) 14 Days After Application, TRZSS
[17] = ZEAMX: maize, corn (Zea mays), read-out: Visual Growth Reduction (%) 14 Days After Application, ZEAMX

Nc1cc(-c2c(F)cc(Br)c(F)c2F)nc(C(=O)O)c1Cl [Compound 162, 4-amino-6-(4-bromo-2,3,6-trifluorophenyl)-3-chloropicolinic acid]
75 to 84%: pest or weed control at 70 g/ha [2, 11] | pest or weed control at 140 g/ha [2, 11] | pest or weed control at 140 g/ha [2, 12] | pest or weed control at 140 g/ha [2, 14] | pest or weed control at 140 g/ha [2, 17]
85 to 94%: pest or weed control at 70 g/ha [1, 3] | pest or weed control at 140 g/ha [1, 3] | pest or weed control at 70 g/ha [1, 8] | pest or weed control at 140 g/ha [1, 8] | pest or weed control at 70 g/ha [2, 12] | pest or weed control at 70 g/ha [2, 14] | pest or weed control at 70 g/ha [2, 15]
45 to 59%: pest or weed control at 140 g/ha [2, 10] | pest or weed control at 70 g/ha [2, 13] | pest or weed control at 140 g/ha [2, 13] | pest or weed control at 70 g/ha [2, 16] | pest or weed control at 140 g/ha [2, 16]
95 to 100%: pest or weed control at 70 g/ha [1, 4] | pest or weed control at 140 g/ha [1, 4] | pest or weed control at 70 g/ha [1, 5] | pest or weed control at 140 g/ha [1, 5] | pest or weed control at 70 g/ha [1, 6] | pest or weed control at 140 g/ha [1, 6] | pest or weed control at 70 g/ha [1, 7] | pest or weed control at 140 g/ha [1, 7] | pest or weed control at 70 g/ha [1, 9] | pest or weed control at 140 g/ha [1, 9] | pest or weed control at 70 g/ha [2, 10] | pest or weed control at 140 g/ha [2, 15]
60 to 74%: pest or weed control at 70 g/ha [2, 17]
